Assay results from patent US20060105361A1, “Donor yeast strain for transfer of genetic material” (priority 2004, published 2006).

System: wild-type strains
Assay: Spot tests of yeast strains on SD-leu plates containing camptothecin and CuSO4
Assay type: cell-based, Saccharomyces cerevisiae
Description: The mutant and wild-type TOP1 were cloned under the control of the copper-inducible CUP1 promoter. These plasmids were transformed into the MATa universal donor strain (J1361), the MATalpha deletion library wild-type strain (BY4742) and rad9 and rad50 deletion strains from the library. Transformation reactions were plated on SD-leu media and incubated for 3 days at 30° C. to allow colony growth. […] B. Transformants from A were grown overnight in liquid SD-leu media, equalized by OD, serially diluted and spotted onto SD-leu plates containing the indicated concentrations of CuSO4. Each panel is a group of three strains containing the vector, TOP1 or TOP1-T722A plasmids as indicated on the right. […] Spot tests shown at the bottom contain 5 μg/ml camptothecin.

With `CC[C@@]1(O)C(=O)OCc2c1cc1n(c2=O)Cc2cc3ccccc3nc2-1` [camptothecin] the “sensitivity (viability in spot test) of strains containing the TOP1-T722A plasmid” value (5 μg/ml camptothecin, wild-type cells with CUP1-promoter TOP1-T722A plasmid, graded CuSO4) was “roughly additive effect of the TOP1-T722A mutant in conjunction with camptothecin”, the “sensitivity (viability in spot test) of strains containing the TOP1 plasmid” value (5 μg/ml camptothecin, wild-type strain (BY4742) with CUP1-promoter TOP1 plasmid, graded CuSO4) was “only sensitive to the drug when Top1 is overexpressed by 100 μM copper” and the “viability of the library strain on plates containing camptothecin” value (library strain is TOP1, relatively low doses of drug, no TOP1 overexpression) was “do not affect viability”.
